# Results: patent publication US20110158953A1, “TUMOR SUPPRESSION THROUGH PLEXIN C1” (UNIVERSITY OF ROCHESTER, priority 2008, published 2011)
# Entries after “also recorded” stand apart in the source; their conditions may differ.
# How the values were obtained:
# [1] = tested on: Plexin C1; test: Plexin C1 protein expression in human melanoma cell lines treated with DNA methylation inhibitor (Western blot); assay type: cell-based; details: 5 days; for Change in Plexin C1 protein: 3 μM
# Protocol: Results are representative of 2 separate experiments.
# Promotor hypermethylation plays a major role in transcriptional silencing of tumor suppressor genes in cancer and in melanoma (Dahl and Guldberg, 2007; Gronbaek et al., 2007; Rothhammer and Bosserhoff, 2007). To determine if Plexin C1 expression is regulated by DNA hypermethylation, melanoma cells were treated for 5 days with the DNA methylation inhibitor 5-Aza-2′-Deoxycytidine (5-Aza2Dc; 3 μM). Total cell lysates were then blotted for Plexin C1. […] But, a dose of 1.0 μM was the lowest dose that stimulated Plexin C1 expression in the YURIF and WW165 cell lines (FIG. 1C).
# Neonatal foreskins were obtained according to the University of Rochester Research Subjects Review Board guidelines and were the source of cultured human melanocytes. Human melanocytes were cultured in MCDB 153 supplemented with 0.5% fetal bovine serum (FBS), bovine pituitary extract (15 μg/ml), phorbol ester (10 nM), basic fibroblast growth factor (1 ng/ml), insulin (5 μg/ml) and hydrocortisone (500 ng/ml). All supplements were purchased from Sigma Co, except FBS, which was purchased from Mediatech (Manassas, Va.). The following human melanoma cell lines were purchased from the Yale University Cell Core Facility: WW165, YURIF, YUSIK, YUMAC, and were maintained in Opti-MEM+5% FBS, except WW165 which was maintained in Opti-MEM+5% FBS and IBMX 0.1 mM. The C32 and WM115 human melanoma cell lines were obtained from American Type Culture Collection (Manassas Va.) and were maintained in Eagle Minimal Essential Media (MEM)+10% FBS and 1 mM sodium pyruvate. The WM115 and WW 165 cell lines were derived from melanomas primary to the skin; the other cell lines were derived from metastatic melanoma.
# For Western blotting, cells were lysed in RIPA buffer (150 mM NaCl, 1% NP-40, 0.5% DOC, 0.1% SDS, 50 mM Tris-HCl) with protease inhibitors (Boehringer Mannheim, Gmbt, Germany) and phosphatase inhibitors (Gbiosciences, St. Louis, Mo.) and protein was quantified using bovine serum albumen (BSA) as standard (Bio-Rad Laboratories, Hercules, Calif.). Visualization of the immunoreactive proteins was accomplished with an enhanced chemiluminescence reaction (Pierce Chemical, Rockford, Ill.). For analysis of cell surface Sema7A expression in melanoma cell lines by flow cytometry, cells were placed in suspension in PBS/1% BSA and stained with FITC-conjugated antibodies against Sema7A for 30 minutes at room temperature. Negative controls consisted of cells incubated with FITC-conjugated IgM. After washing in PBS, cells were re-suspended in 0.5% formalin in PBS/1% BSA and analyzed using a FACS Caliber Machine (Becton Dickenson) at the flow cytometry core facility at the University of Rochester.
# [2] = tested on: Erk1/Erk2; test: Sema7A-stimulated MAP kinase activation (P-Erk1/Erk2) in human melanocytes (Western blot); assay type: cell-based; details: PD 98059 10 μM one hour prior to Sema7A 25 ng/ml for 5 minutes
# Protocol: Total cell lysates were resolved on 10% SDS-PAGE and blotted for phosphorylated Erk1/Erk2; the blot was stripped and re-blotted for total Erk1/Erk2. […] Results are representative of 2 separate experiments. The specificity of MAP kinase activation was tested in melanocytes by the inclusion of the selective p42/44 MAP kinase inhibitor PD 98059 (10 μM) in cells treated with Sema7A (25 ng/ml) for 5 minutes (FIG. 4D). Shown are cell lyates resolved on SDS-PAGE and blotted for P-Erk1/Erk2. The blot was stripped and reblotted for total Erk1/Erk2. As expected, Sema7A stimulated phosphorylation of Erk1/Erk2 within 5 minutes of treatment. […] Results are representative of 2 separate experiments. […]
# For Western blotting, cells were lysed in RIPA buffer (150 mM NaCl, 1% NP-40, 0.5% DOC, 0.1% SDS, 50 mM Tris-HCl) with protease inhibitors (Boehringer Mannheim, Gmbt, Germany) and phosphatase inhibitors (Gbiosciences, St. Louis, Mo.) and protein was quantified using bovine serum albumen (BSA) as standard (Bio-Rad Laboratories, Hercules, Calif.). […] After washing in PBS, cells were re-suspended in 0.5% formalin in PBS/1% BSA and analyzed using a FACS Caliber Machine (Becton Dickenson) at the flow cytometry core facility at the University of Rochester.
SMILES,Change in Plexin C1 protein ([1]; C32 melanoma cells),Change in Plexin C1 protein ([1]; WM115 melanoma cells),"Lowest dose that stimulated Plexin C1 expression ([1]; WW165 cells, dose response 0.1 μM to 3.0 μM) [µM]",Change in Plexin C1 protein ([1]; WW165 melanoma cells),"Change in Plexin C1 protein ([1]; WW165 melanoma cells, listed as 5-AzaDc)","Dose sufficient to increase Plexin C1 expression ([1]; YUMAC cells, dose response 0.1 μM to 3.0 μM) [µM]",Change in Plexin C1 protein ([1]; YUMAC melanoma cells),"Lowest dose that stimulated Plexin C1 expression ([1]; YURIF cells, dose response 0.1 μM to 3.0 μM) [µM]",Change in Plexin C1 protein ([1]; YURIF melanoma cells),"Change in Plexin C1 protein ([1]; YURIF melanoma cells, listed as 5-AzaDc)",Change in Plexin C1 protein ([1]; YUSIK melanoma cells),Effect on Sema7A-induced Erk1/Erk2 phosphorylation [2]
"Nc1ncn([C@H]2C[C@H](O)[C@@H](CO)O2)c(=O)n1 [5-Aza2Dc, 5-Aza-2′-Deoxycytidine]",no change,no change,1.0,reduction,decrease,0.1,increase,1.0,reduction,decrease,no change,
COc1cccc(-c2cc(=O)c3ccccc3o2)c1N [PD 98059],,,,,,,,,,,,no induction; also recorded: inhibited
